Measured values taken from US10696898B2, “Reverse photochromic compound” (FUJIFILM Wako Pure Chemical Corporation, priority 2017, dated 2020).

Columns and labels:
[1] = Evaluation of solubility and compatibility of compound 8 (Experiment Example 8); assay type: physicochemical; details: 20° C.
Procedure: The solubility and the compatibility of the compound 8 obtained in Example 2 were evaluated in the following manner.
In other words, 100 mg of the compound 8 was weighed in a glass container (manufactured by NICHIDEN RIKA GLASS CO., LTD.), 10 mg of various organic solvents were added thereto in a state in which the temperature thereof was maintained to 20° C., and the solution was stirred for 10 minutes. In a case where the solid content remained, the operation of adding 10 mg of the organic solvents and stirring the solution for 10 minutes was repeated, and the amount (A mg) of the organic solvents to be used at the time of complete dissolution of the compound 8 was measured. The solubility (%) was acquired based on the value of A mg using the following equation. Solubility (%)=100 mg/(100 mg+A mg)×100

[2] = Evaluation of solvent dependence of reverse photochromic characteristics of compound 8 (Experiment Example 5); assay type: physicochemical
Procedure: The solvent dependence of the reverse photochromic characteristics of the compound 8 was evaluated in the following manner.
Various solutions of the compound 8 obtained in Example 2 were prepared using the following methods (1-1) to (1-7).
(§1) First, 1.2 mg (8.7×10^−7 mol) of the compound 8 was weighed in a vial bottle (glass bottle), and 9 mL of methanol was added thereto to prepare a solution having a concentration of 1.0×10^−4 mol/L. The obtained solution was poured into another vial bottle (glass bottle) and further diluted with methanol to prepare a methanol solution containing the compound 8 with a concentration of 5.6×10^0.5 mol/L.
as §1, with “toluene” for “methanol”, “9.3×10^−5” for “1.0×10^−4”, “1.9×10^−5” for “5.6×10^0.5”
as §1, with “10” for “9”, “acetonitrile” for “methanol”, “8.7×10^−5” for “1.0×10^−4”, “an acetonitrile” for “a methanol”, “2.2×10^−5” for “5.6×10^0.5”
as §1, with “1.1” for “1.2”, “(8.0×10^7′” for “(8.7×10^−7”, “10” for “9”, “chloroform” for “methanol”, “8.0×10^−5” for “1.0×10^−4”, “1.8×10^−5” for “5.6×10^0.5”
First, 1.5 mg […] of the compound 8 was weighed in a vial bottle (glass bottle), and 10 mL of o-dichlorobenzene was added thereto to prepare a solution having a concentration of 1.1×10^−4 mol/L. The obtained solution was poured into another vial bottle (glass bottle) and further diluted with o-dichlorobenzene to prepare an o-dichlorobenzene solution containing the compound 8 with a concentration of 2.2×10^−5 mol/L.
First, 1.3 mg (9.7×10^−7 mol) of the compound 8 was weighed in a vial bottle (glass bottle), and 10 mL of 2-propanol was added thereto to prepare a saturated solution. The supernatant of the obtained saturated solution was poured into another vial bottle (glass bottle) and further diluted with 2-propanol by three times to prepare a 2-propanol solution containing the compound 8.
as §1, with “1.4” for “1.2”, “(1.0×10^0.6” for “(8.7×10^−7”, “10” for “9”, “chlorobenzene” for “methanol”, “2.0×10^−5” for “5.6×10^0.5”
Various solutions containing the compound 8 obtained in the preparation (1) were put into a quartz cell having an optical path length of 1 cm together with a stirring bar, the solutions were irradiated with light while being stirred for 5 minutes under a condition of an irradiation intensity of 1 SUN (AM 1.5, 1000 W/m^2) using a solar simulator (product name: LAX-C100, manufactured by Asahi Spectra Co., Ltd.), and the absorbance of each solution at the maximum absorption wavelength was measured using a spectrophotometer (product name: V-670, manufactured by Jasco Corporation). Thereafter, the quartz cell was stored in a dark place, the absorbance at every fixed interval time was measured, and the temporal change of the absorbance of each solution at the maximum absorption wavelength was confirmed. […]

SMILES: C=C(C)C(=O)OCCOC(=O)c1ccccc1-c1c2ccc(=[N+](CC)CC)cc-2oc2c1CCC/C2=C\c1ccc2c(c1)c1ccccc1n2CC [compound 8]
- Solubility (%) ([1]; Epoxy resin (jER ®)): 11%
- Solubility (%) ([1]; organic solvent: 1-Methoxy-2-propanol (PGME)): 38%
- Solubility (%) ([1]; organic solvent: Dibutyl sebacate (DBS)): 20%
- Solubility (%) ([1]; organic solvent: Ethyl acetate (AcOEt)): 50%
- Solubility (%) ([1]; organic solvent: Methyl ethyl ketone (MEK)): 50%
- Solubility (%) ([1]; organic solvent: Methyl methacrylate (MMA)): 50%
- Solubility (%) ([1]; organic solvent: Toluene, 100 mg/(100 mg+A mg)×100): 50%
- Solubility (%) ([1]; organic solvent: Triethyl phosphate (TEP)): 31%
- maximum absorption wavelength ([2]; 2-propanol solution): 639 nm
- maximum absorption wavelength ([2]; acetonitrile solution): 626 nm
- maximum absorption wavelength ([2]; chlorobenzene solution): 659 nm
- maximum absorption wavelength ([2]; chloroform solution): 650 nm
- maximum absorption wavelength ([2]; methanol solution): 632 nm
- maximum absorption wavelength ([2]; o-dichlorobenzene solution): 659 nm
- maximum absorption wavelength ([2]; toluene solution): 653 nm
